Results published in patent US12139492B2 (Endotarget Inc., priority 2021, dated 2024).

Columns and labels:
[1] = test system: Mino cells; assay: Antiproliferative effect, MTS cell viability assay, Mino cells; format: cell-based; settings: Homo sapiens, MINO, Mino mantle cell lymphoma cells; read-out: IC50 (anti-proliferation) Mino cells
Method in brief: (§1)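 Steps: seed B-cell lymphoma line; add compound at 0, 0.001, 0.01, 0.1, 1 or 10 μM; incubate 72 h; add MTS and read reduced tetrazolium (formazan) absorbance at 490 nm.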

[2] = test system: JeKo-1 cells; assay: Antiproliferative effect, MTS cell viability assay, JeKo-1 cells; format: cell-based; settings: Homo sapiens; JeKo-1 mantle cell lymphoma cells; read-out: IC50 (anti-proliferation) JeKO-1 cells
Method in brief: as §1

[3] = target: BTK (Homo sapiens, UniProt Q06187); assay: Degradation of BTK protein in Namalwa cells (Western blot; DC50, Dmax); settings: for DC50: read-out: DC50 (BTK degradation), concentration giving 50% reduction of BTK expression level, cell line not given; for Dmax: read-out: Dmax (BTK degradation); for degradation of BTK protein: Namalwa B lymphocyte cells, various concentrations, 24 hours, Western blot
Chain of BTK (Q06187 whole entry): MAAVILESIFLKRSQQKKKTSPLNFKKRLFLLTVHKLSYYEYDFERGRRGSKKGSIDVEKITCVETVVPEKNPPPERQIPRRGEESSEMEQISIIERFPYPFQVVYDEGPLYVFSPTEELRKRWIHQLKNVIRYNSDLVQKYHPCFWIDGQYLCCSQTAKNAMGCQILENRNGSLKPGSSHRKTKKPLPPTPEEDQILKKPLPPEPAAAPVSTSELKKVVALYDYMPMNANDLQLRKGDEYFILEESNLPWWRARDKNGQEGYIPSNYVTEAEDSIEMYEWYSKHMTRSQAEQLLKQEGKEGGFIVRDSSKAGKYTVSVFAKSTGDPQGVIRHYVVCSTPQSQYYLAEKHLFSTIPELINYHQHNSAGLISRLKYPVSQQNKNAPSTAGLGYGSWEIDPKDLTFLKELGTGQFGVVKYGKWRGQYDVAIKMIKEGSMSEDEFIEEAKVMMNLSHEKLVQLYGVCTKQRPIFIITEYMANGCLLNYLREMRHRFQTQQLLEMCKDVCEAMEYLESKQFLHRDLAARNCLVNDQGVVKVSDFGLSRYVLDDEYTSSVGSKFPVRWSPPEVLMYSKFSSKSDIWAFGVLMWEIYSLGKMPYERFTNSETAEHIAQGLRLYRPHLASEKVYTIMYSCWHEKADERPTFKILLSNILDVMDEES

SMILES	DC50 [3]	Dmax [3]	degradation of BTK protein [3]	IC50 [1]	IC50 [2]
Nc1ncnc2c1c(-c1ccc(Oc3ccccc3)cc1)cn2C1CCN(CCN2CC(N3CCN(c4ccc5c(c4)CN(C4CCC(=O)NC4=O)C5=O)CC3)C2)CC1 (centres unmarked) [Compound 464, 3-(5-(4-(1-(2-(4-(4-amino-5-(4-phenoxyphenyl)-7H-pyrrolo[2,3-d]pyrimidin-7-yl)piperidin-1-yl)ethyl)azetidin-3-yl)piperazin-1-yl)-1-oxoisoindolin-2-yl)piperidine-2,6-dione]	10 to 50 nM	> 75%	–	1000 to 10000 nM	1000 to 10000 nM
Nc1ncnc2c1c(-c1ccc(Oc3ccccc3)cc1)nn2C1CCN(CCN2CCN(CCSc3ccc4c(c3)CN(C3CCC(=O)NC3=O)C4=O)CC2)CC1 (centres unmarked) [Compound 466, 3-(5-((2-(4-(2-(4-(4-amino-3-(4-phenoxyphenyl)-1H-pyrazolo[3,4-d]pyrimidin-1-yl)piperidin-1-yl)ethyl)piperazin-1-yl)ethyl)thio)-1-oxoisoindolin-2-yl)piperidine-2,6-dione]	> 50 nM	> 50%	–	> 10000 nM	> 10000 nM
Nc1ncnc2c1c(-c1ccc(Oc3ccccc3)cc1)nn2C1CCN(CCN2CCN(CCCSc3ccc4c(c3)CN(C3CCC(=O)NC3=O)C4=O)CC2)CC1 (centres unmarked) [Compound 468]	< 10 nM	> 90%	–	1000 to 10000 nM	1000 to 10000 nM
Nc1ncnc2c1c(-c1ccc(Oc3ccccc3)cc1)nn2C1CCN(CCN2CCC(CSc3ccc4c(c3)CN(C3CCC(=O)NC3=O)C4=O)CC2)CC1 (centres unmarked) [Compound 470, 3-(5-(((1-(2-(4-(4-amino-3-(4-phenoxyphenyl)-1H-pyrazolo[3,4-d]pyrimidin-1-yl)piperidin-1-yl)ethyl)piperidin-4-yl)methyl)thio)-1-oxoisoindolin-2-yl)piperidine-2,6-dione]	< 10 nM	> 90%	–	< 1000 nM	1000 to 10000 nM
Nc1ncnc2c1c(-c1ccc(Oc3ccccc3)cc1)nn2C1CCN(CCN2CCC(CSc3ccc4c(c3)CN(C3CCC(=O)NC3=O)C4=O)C2)CC1 (centres unmarked) [Compound 474, 3-(5-(((1-(2-(4-(4-amino-3-(4-phenoxyphenyl)-1H-pyrazolo[3,4-d]pyrimidin-1-yl)piperidin-1-yl)ethyl)pyrrolidin-3-yl)methyl)thio)-1-oxoisoindolin-2-yl)piperidine-2,6-dione]	< 10 nM	> 90%	–	1000 to 10000 nM	1000 to 10000 nM
Nc1ncnc2c1c(-c1ccc(Oc3ccccc3)cc1)nn2[C@@H]1CCCN(C2CCN(C(=O)N3CC(N4CCN(c5ccc6c(c5)C(=O)N(C5CCC(=O)NC5=O)C6=O)CC4)C3)CC2)C1 (stereo partly drawn) [Compound 475, 5-(4-(1-((R)-3-(4-amino-3-(4-phenoxyphenyl)-1H-pyrazolo[3,4-d]pyrimidin-1-yl)-[1,4′-bipiperidine]-1′-carbonyl)azetidin-3-yl)piperazin-1-yl)-2-(2,6-dioxopiperidin-3-yl)isoindoline-1,3-dione]	< 10 nM	> 90%	–	< 1000 nM	1000 to 10000 nM
Nc1ncnc2c1c(-c1ccc(Oc3ccccc3)cc1)nn2[C@@H]1CCCN(C2CCN(C(=O)N3CC(N4CCN(c5ccc6c(c5)CN(C5CCC(=O)NC5=O)C6=O)CC4)C3)CC2)C1 (stereo partly drawn) [Compound 476, 3-(5-(4-(1-((R)-3-(4-amino-3-(4-phenoxyphenyl)-1H-pyrazolo[3,4-d]pyrimidin-1-yl)-[1,4′-bipiperidine]-1′-carbonyl)azetidin-3-yl)piperazin-1-yl)-1-oxoisoindolin-2-yl)piperidine-2,6-dione]	< 10 nM	> 90%	dose-dependent degradation	< 1000 nM	< 1000 nM
Nc1ncnc2c1c(-c1ccc(Oc3ccccc3)cc1)nn2[C@@H]1CCCN(C2CN(C(=O)N3CC(N4CCN(c5ccc6c(c5)C(=O)N(C5CCC(=O)NC5=O)C6=O)CC4)C3)C2)C1 (stereo partly drawn) [Compound 479, 5-(4-(1-(3-((R)-3-(4-amino-3-(4-phenoxyphenyl)-1H-pyrazolo[3,4-d]pyrimidin-1-yl)piperidin-1-yl)azetidin-1-carbonyl)azetidin-3-yl)piperazin-1-yl)-2-(2,6-dioxopiperidin-3-yl)isoindoline-1,3-dione]	< 10 nM	> 90%	–	1000 to 10000 nM	1000 to 10000 nM
Nc1ncnc2c1c(-c1ccc(Oc3ccccc3)cc1)nn2[C@@H]1CCCN(C2CN(C(=O)N3CC(N4CCN(c5ccc6c(c5)CN(C5CCC(=O)NC5=O)C6=O)CC4)C3)C2)C1 (stereo partly drawn) [Compound 480, 3-(5-(4-(1-(3-((R)-3-(4-amino-3-(4-phenoxyphenyl)-1H-pyrazolo[3,4-d]pyrimidin-1-yl)piperidin-1-yl)azetidine-1-carbonyl)azetidin-3-yl)piperazin-1-yl)-1-oxoisoindolin-2-yl)piperidine-2,6-dione]	< 10 nM	> 90%	dose-dependent degradation	< 1000 nM	1000 to 10000 nM
Nc1ncnc2c1c(-c1ccc(Oc3ccccc3)cc1)nn2[C@@H]1CCCN(C2CN(C(=O)N3CCC(N4CCN(c5ccc6c(c5)C(=O)N(C5CCC(=O)NC5=O)C6=O)CC4)CC3)C2)C1 (stereo partly drawn) [Compound 481, 5-(4-(1-(3-((R)-3-(4-amino-3-(4-phenoxyphenyl)-1H-pyrazolo[3,4-d]pyrimidin-1-yl)piperidin-1-yl)azetidin-1-carbonyl)piperidin-4-yl)piperazin-1-yl)-2-(2,6-dioxopiperidin-3-yl)isoindoline-1,3-dione]	< 10 nM	> 90%	–	1000 to 10000 nM	1000 to 10000 nM
Nc1ncnc2c1c(-c1ccc(Oc3ccccc3)cc1)nn2[C@@H]1CCCN(C2CN(C(=O)N3CCC(N4CCN(c5ccc6c(c5)CN(C5CCC(=O)NC5=O)C6=O)CC4)CC3)C2)C1 (stereo partly drawn) [Compound 482, 3-(5-(4-(1-(3-((R)-3-(4-amino-3-(4-phenoxyphenyl)-1H-pyrazolo[3,4-d]pyrimidin-1-yl)piperidin-1-yl)azetidine-1-carbonyl)piperidin-4-yl)piperazin-1-yl)-1-oxoisoindolin-2-yl)piperidine-2,6-dione]	< 10 nM	> 90%	–	< 1000 nM	1000 to 10000 nM

More lines, main results first:

DC50 [3]	Dmax [3]	degradation of BTK protein [3]	SMILES	IC50 [1]	IC50 [2]
10 to 50 nM	> 90%	–	Nc1ncnc2c1c(-c1ccc(Oc3ccccc3)cc1)nn2C1CCN(CCN2CC(N3CCN(c4ccc5c(c4)C(=O)N(C4CCC(=O)NC4=O)C5=O)CC3)C2)CC1 (centres unmarked) [Compound 463, 5-(4-(1-(2-(4-(4-amino-3-(4-phenoxyphenyl)-1H-pyrazolo[3,4-d]pyrimidin-1-yl)piperidin-1-yl)ethyl)azetidin-3-yl)piperazin-1-yl)-2-(2,6-dioxopiperidin-3-yl)isoindoline-1,3-dione]	< 1000 nM	< 1000 nM
10 to 50 nM	> 90%	–	Nc1ncnc2c1c(-c1ccc(Oc3ccccc3)cc1)nn2C1CCN(CCN2CCN(CCSc3ccc4c(c3)C(=O)N(C3CCC(=O)NC3=O)C4=O)CC2)CC1 (centres unmarked) [Compound 465, 5-((2-(4-(2-(4-(4-amino-3-(4-phenoxyphenyl)-1H-pyrazolo(3,4-d)pyrimidin-1-yl)piperidin-1-yl)ethyl)piperazin-1-yl)ethyl)thio)-2-(2,6-dioxopiperidin-3-yl)isoindoline-1,3-dione]	1000 to 10000 nM	1000 to 10000 nM
10 to 50 nM	> 90%	–	Nc1ncnc2c1c(-c1ccc(Oc3ccccc3)cc1)nn2C1CCN(CCN2CCN(CCCSc3ccc4c(c3)C(=O)N(C3CCC(=O)NC3=O)C4=O)CC2)CC1 (centres unmarked) [Compound 467, 5-((3-(4-(2-(4-(4-amino-3-(4-phenoxyphenyl)-1H-pyrazolo[3,4-d]pyrimidin-1-yl)piperidin-1-yl)ethyl)piperazin-1-yl)propyl)thio)-2-(2,6-dioxopiperidin-3-yl)isoindoline-1,3-dione]	1000 to 10000 nM	1000 to 10000 nM
< 10 nM	> 90%	–	Nc1ncnc2c1c(-c1ccc(Oc3ccccc3)cc1)nn2C1CCN(CCN2CCC(CSc3ccc4c(c3)C(=O)N(C3CCC(=O)NC3=O)C4=O)CC2)CC1 (centres unmarked) [Compound 469, 5-(((1-(2-(4-(4-amino-3-(4-phenoxyphenyl)-1H-pyrazolo[3,4-d]pyrimidin-1-yl)piperidin-1-yl)ethyl)piperidin-4-yl)methyl)thio)-2-(2,6-dioxopiperidin-3-yl)isoindoline-1,3-dione]	1000 to 10000 nM	1000 to 10000 nM
10 to 50 nM	> 75%	–	Nc1ncnc2c1c(-c1ccc(Oc3ccccc3)cc1)nn2C1CCN(CCN2CCC(Sc3ccc4c(c3)C(=O)N(C3CCC(=O)NC3=O)C4=O)CC2)CC1 (centres unmarked) [Compound 471, 5-((1-(2-(4-(4-amino-3-(4-phenoxyphenyl)-1H-pyrazolo[3,4-d]pyrimidin-1-yl)piperidin-1-yl)ethyl)piperidin-4-yl)thio)-2-(2,6-dioxopiperidin-3-yl)isoindoline-1,3-dione]	1000 to 10000 nM	1000 to 10000 nM
10 to 50 nM	> 75%	–	Nc1ncnc2c1c(-c1ccc(Oc3ccccc3)cc1)nn2C1CCN(CCN2CCC(Sc3ccc4c(c3)CN(C3CCC(=O)NC3=O)C4=O)CC2)CC1 (centres unmarked) [Compound 472, 3-(5-((1-(2-(4-(4-amino-3-(4-phenoxyphenyl)-1H-pyrazolo[3,4-d]pyrimidin-1-yl)piperidin-1-yl)ethyl)piperidin-4-yl)thio)-1-oxoisoindolin-2-yl)piperidine-2,6-dione]	1000 to 10000 nM	1000 to 10000 nM
10 to 50 nM	> 90%	–	Nc1ncnc2c1c(-c1ccc(Oc3ccccc3)cc1)nn2C1CCN(CCN2CCC(CSc3ccc4c(c3)C(=O)N(C3CCC(=O)NC3=O)C4=O)C2)CC1 (centres unmarked) [Compound 473, 5-(((1-(2-(4-(4-amino-3-(4-phenoxyphenyl)-1H-pyrazolo[3,4-d]pyrimidin-1-yl)piperidin-1-yl)ethyl)pyrrolidin-3-yl)methyl)thio)-2-(2,6-dioxopiperidin-3-yl)isoindoline-1,3-dione]	1000 to 10000 nM	1000 to 10000 nM
